{"source": "PubChem BioAssay AID1963422", "about": "(Molecular Pharmacology Branch, DTP, NCI, 2024);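 also: compound exposure lasted 7 days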;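 as to viability, T/C: 100% = DMSO vehicle control wells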", "test_system": "463943-066-T-J2-PDC complex spheroid growth", "test": "Anticancer human tumor 463943-066-T-J2-PDC patient-derived colon adenocarcinoma cell line growth inhibition [Asc]", "details": "for IC50: curve of first compound; for viability, T/C: stronger effect = lower value", "procedure,_shortened": "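Complex solid-tumor spheroids incorporating human endothelial and mesenchymal stem cells received single agents or combinations over half-log dilution ranges anchored to clinical Cmax.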", "data": [{"smiles": "CNC(C)C(=O)NC1CN(S(=O)(=O)c2cccc(S(=O)(=O)N3CCC4CCC(C(=O)NC(c5ccccc5)c5ccccc5)N4C(=O)C(NC(=O)C(C)NC)C3)c2)CCC2CCC(C(=O)NC(c3ccccc3)c3ccccc3)N2C1=O", "note": "(configuration not stated) + Cc1c(S(C)(=O)=O)c(-c2cc(F)cc(N3CCN(c4ccc(NS(=O)(=O)c5ccc(NC(CCN6CCC(C(=O)OCCCP(=O)(O)O)CC6)CSc6ccccc6)c(S(=O)(=O)C(F)(F)F)c5)cc4)CC3)c2)c(-c2ccc(Cl)cc2)n1C(C)C", "values": [{"measurement": "IC50", "setting": "second compound 0.0316 µM", "result": "> 1000", "unit": "nM"}, {"measurement": "IC50", "setting": "second compound 0.1 µM", "result": "> 1000", "unit": "nM"}, {"measurement": "IC50", "setting": "second compound 0.316 µM", "result": "> 1000", "unit": "nM"}, {"measurement": "IC50", "setting": "second compound 1 µM", "result": "> 1000", "unit": "nM"}, {"measurement": "IC50", "setting": "second compound 3.16 µM", "result": "> 1000", "unit": "nM"}, {"measurement": "IC50", "setting": "second compound 10 µM", "result": 368, "unit": "nM"}, {"measurement": "viability, T/C", "setting": "second compound 0.0316 µM, first compound 0.00316 µM", "result": 99.7, "unit": "%"}, {"measurement": "viability, T/C", "setting": "second compound 0.0316 µM, first compound 0.01 µM", "result": 97.5, "unit": "%"}, {"measurement": "viability, T/C", "setting": "second compound 0.0316 µM, first compound 0.0316 µM", "result": 97.2, "unit": "%"}, {"measurement": "viability, T/C", "setting": "second compound 0.0316 µM, first compound 0.1 µM", "result": 99.9, "unit": "%"}, {"measurement": "viability, T/C", "setting": "second compound 0.0316 µM, first compound 0.316 µM", "result": 97.6, "unit": "%"}, {"measurement": "viability, T/C", "setting": "second compound 0.0316 µM, first compound 1 µM", "result": 80.7, "unit": "%"}, {"measurement": "viability, T/C", "setting": "second compound 0.1 µM, first compound 0.00316 µM", "result": 100, "unit": "%"}, {"measurement": "viability, T/C", "setting": "second compound 0.1 µM, first compound 0.01 µM", "result": 91.6, "unit": "%"}, {"measurement": "viability, T/C", "setting": "second compound 0.1 µM, first compound 0.0316 µM", "result": 96.6, "unit": "%"}, {"measurement": "viability, T/C", "setting": "second compound 0.1 µM, first compound 0.1 µM", "result": 94.4, "unit": "%"}, {"measurement": "viability, T/C", "setting": "second compound 0.1 µM, first compound 0.316 µM", "result": 98.8, "unit": "%"}, {"measurement": "viability, T/C", "setting": "second compound 0.1 µM, first compound 1 µM", "result": 74, "unit": "%"}, {"measurement": "viability, T/C", "setting": "second compound 0.316 µM, first compound 0.00316 µM", "result": 88.6, "unit": "%"}, {"measurement": "viability, T/C", "setting": "second compound 0.316 µM, first compound 0.01 µM", "result": 89.3, "unit": "%"}, {"measurement": "viability, T/C", "setting": "second compound 0.316 µM, first compound 0.0316 µM", "result": 88.2, "unit": "%"}, {"measurement": "viability, T/C", "setting": "second compound 0.316 µM, first compound 0.1 µM", "result": 87.4, "unit": "%"}, {"measurement": "viability, T/C", "setting": "second compound 0.316 µM, first compound 0.316 µM", "result": 93.2, "unit": "%"}, {"measurement": "viability, T/C", "setting": "second compound 0.316 µM, first compound 1 µM", "result": 70.6, "unit": "%"}, {"measurement": "viability, T/C", "setting": "second compound 1 µM, first compound 0.00316 µM", "result": 82.8, "unit": "%"}, {"measurement": "viability, T/C", "setting": "second compound 1 µM, first compound 0.01 µM", "result": 77, "unit": "%"}, {"measurement": "viability, T/C", "setting": "second compound 1 µM, first compound 0.0316 µM", "result": 77.8, "unit": "%"}, {"measurement": "viability, T/C", "setting": "second compound 1 µM, first compound 0.1 µM", "result": 83.8, "unit": "%"}, {"measurement": "viability, T/C", "setting": "second compound 1 µM, first compound 0.316 µM", "result": 76.8, "unit": "%"}, {"measurement": "viability, T/C", "setting": "second compound 1 µM, first compound 1 µM", "result": 67.2, "unit": "%"}, {"measurement": "viability, T/C", "setting": "second compound 3.16 µM, first compound 0.00316 µM", "result": 65.8, "unit": "%"}, {"measurement": "viability, T/C", "setting": "second compound 3.16 µM, first compound 0.01 µM", "result": 77.3, "unit": "%"}, {"measurement": "viability, T/C", "setting": "second compound 3.16 µM, first compound 0.0316 µM", "result": 66, "unit": "%"}, {"measurement": "viability, T/C", "setting": "second compound 3.16 µM, first compound 0.1 µM", "result": 68.9, "unit": "%"}, {"measurement": "viability, T/C", "setting": "second compound 3.16 µM, first compound 0.316 µM", "result": 70.7, "unit": "%"}, {"measurement": "viability, T/C", "setting": "second compound 3.16 µM, first compound 1 µM", "result": 48.2, "unit": "%"}, {"measurement": "viability, T/C", "setting": "second compound 10 µM, first compound 0.00316 µM", "result": 52.3, "unit": "%"}, {"measurement": "viability, T/C", "setting": "second compound 10 µM, first compound 0.01 µM", "result": 49.5, "unit": "%"}, {"measurement": "viability, T/C", "setting": "second compound 10 µM, first compound 0.0316 µM", "result": 52, "unit": "%"}, {"measurement": "viability, T/C", "setting": "second compound 10 µM, first compound 0.1 µM", "result": 51.3, "unit": "%"}, {"measurement": "viability, T/C", "setting": "second compound 10 µM, first compound 0.316 µM", "result": 52.5, "unit": "%"}, {"measurement": "viability, T/C", "setting": "second compound 10 µM, first compound 1 µM", "result": 40.8, "unit": "%"}]}]}
